molecular target: T1, human recombinant NRH:quinone oxidoreductase (NQO2) (Homo sapiens, UniProt P16083); experiment: biochemical; settings: not given
T1 construct: purchased Sigma Q0380
T1 sequence (P16083 1-231): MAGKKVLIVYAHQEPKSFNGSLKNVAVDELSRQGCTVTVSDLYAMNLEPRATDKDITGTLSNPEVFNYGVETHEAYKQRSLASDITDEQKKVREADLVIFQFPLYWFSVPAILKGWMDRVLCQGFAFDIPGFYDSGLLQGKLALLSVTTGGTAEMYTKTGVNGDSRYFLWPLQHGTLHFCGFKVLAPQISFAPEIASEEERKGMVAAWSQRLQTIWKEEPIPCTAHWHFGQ
Method: The inhibition activity of all synthesized compounds at a concentration of 10 µM was preliminarily tested in vitro using human recombinant NRH:quinone oxidoreductase (NQO2).
The activity of recombinant human NQO2 (Sigma #Q0380, St. Louis, […], USA) was evaluated kinetically using menadione and N-benzyl-dihydronicotinamide (BNAH) as the substrate and co-substrate, respectively. All reagents and test compounds were dissolved in 50 mM Hepes-KOH (pH 7.4) containing 1 mM of β-octyl-D-glucopyranoside, 0.1 mg/mL BSA and 1 μM FAD. […] The solutions of the test compounds were pre-incubated for 5 min with 50 μL of human recombinant NQO2 (final concentration 42 ng/mL). Then, 25 μL of menadione was introduced at a final concentration of 100 μM. The reaction was started with 25 μL of 100 μM BNAH. The fluorescence of the co-substrate BNAH was followed at wavelengths of 370/440 nm at 37 °C using an Infinite M200 Pro microplate reader (Tecan, Grödig, Austria). The fluorescence data was fit according to a one-phase decay nonlinear regression to obtain slope values with Prism 8.0 (GraphPad Inc., San Diego, CA, USA). The activity in sample wells were normalized against negative control and enzyme-blank samples.

SMILES | IC50 [µM]
CN(C)c1ccc(C=C2C(=O)Nc3ccccc32)cc1 [Compound 30, (E,Z)-3-(4-Dimethylaminobenzylidene)-2-oxindole] | > 50
O=C1Nc2ccccc2/C1=C\c1ccccn1 [Compound 1, (E)-3-(2-pyridinylmethylidene)-2-oxindole] | > 50
CC(=O)Nc1ccc2c(c1)C(=Cc1cccc(O)c1)C(=O)N2 [Compound 13, 3-(3-hydroxybenzylidene)-5-acetylamino-2-oxindole] | 0.64 ± 0.04
O=C1Nc2ccc(Br)cc2C1=Cc1ccco1 [Compound 35, 5-bromo-3-(2-furylmethylidene)-2-oxindole] | > 50
Cc1n[nH]cc1C=C1C(=O)Nc2ccccc21 [Compound 43, 3-((3-methyl-1H-pyrazol-4-yl)methylene)-2-oxindole] | 7.61 ± 0.19
Cn1cc(C=C2C(=O)Nc3ccccc32)cn1 [Compound 41, 3-((1-methyl-1H-pyrazol-4-yl)methylene)-2-oxindole] | 9.4 ± 0.12
Nc1ccc(CC2C(=O)Nc3ccccc32)cc1 (stereo not drawn) [Compound 46, 3-(4-aminobenzyl)-2-oxindole] | > 50
O=C1Nc2ccc(Br)cc2C1=Cc1cccs1 [Compound 38, 5-bromo-3-(2-thienylmethylidene)-2-oxindole] | > 50
CN1C(=O)C(=Cc2ccccn2)c2ccccc21 [Compound 2, N-methyl-3-((pyridin-2-yl)methylene)-2-oxindole] | 16.78 ± 0.09
O=C1Nc2ccc([N+](=O)[O-])cc2C1=Cc1ccccn1 [Compound 4, 5-nitro-3-(2-pyridinylmethylidene)-2-oxindole] | > 50
CCOC(=O)c1[nH]ncc1C=C1C(=O)Nc2ccc([N+](=O)[O-])cc21 [Compound 40, 3-((5-ethoxycarbonyl-1H-pyrazol-4-yl)methylene)-5-nitro-2-oxindole] | 1.88 ± 0.08
COC(=O)Nc1ccc2c(c1)C(=Cc1ccc(Br)cc1)C(=O)N2 [Compound 32, 3-(4-bromobenzylidene)-5-(methoxycarbonylamino)-2-oxindole] | 0.61 ± 0.03
O=C1Nc2ccc(NC(=O)c3ccccc3)cc2C1=Cc1ccc([N+](=O)[O-])cc1 (mixture of isomers) [Compound 29, 5-benzoylamino-3-((4-nitrophenyl)methylene)-2-oxindole] | > 50
COC(=O)CCn1cc(C=C2C(=O)Nc3ccccc32)cn1 [Compound 45, (E,Z)-3-(1-[2-(Methoxycarbonyl)ethyl]-1H-pyrazol-4-ylmethylidene)-2-oxindole] | > 50
Cc1ccc(C(=O)CC2(O)C(=O)Nc3ccc(NC(=O)c4ccco4)cc32)cc1 (stereo not drawn) [Compound 51, 3-hydroxy-5-(2-furoylamino)-3-[2-(4-methylphenyl)-2-oxoethyl]-2-oxindole] | > 50
O=C1Nc2ccccc2C1=Cc1ccc([N+](=O)[O-])cc1 [Compound 27, 3-((4-nitrophenyl)methylene)-2-oxindole] | > 50

same assay, conditions: read-out: NQO2 Inhibition, %

SMILES | inhibition at 10 µM [%]
O=C1Nc2ccc([N+](=O)[O-])cc2C1=Cc1ccco1 [Compound 36, 5-nitro-3-(2-furylmethylidene)-2-oxindole] | 59.5
O=C1Nc2ccc(Br)cc2C1=Cc1cccnc1 [Compound 8, 5-bromo-3-(3-pyridinylmethylidene)-2-oxindole] | 44.2
O=C1Nc2ccccc2C1=Cc1cccnc1 [Compound 7, 3-(3-pyridinylmethylidene)-2-oxindole] | 59.2
COc1cc(C=C2C(=O)Nc3ccc(NC(=O)c4ccccc4)cc32)cc(OC)c1O [Compound 26, (E,Z)-3-(3,5-Dimethoxy-4-hydroxybenzylidene)-5-benzoylamino-2-oxindole] | 40.5
O=C1Nc2ccc(NC(=O)c3ccccc3)cc2C1=Cc1ccc(O)cc1 [Compound 19, 3-(4-hydroxybenzylidene)-5-benzoylamino-2-oxindole] | 62.9
COc1ccc(C=C2C(=O)Nc3ccccc32)cc1 [Compound 20, 3-((4-methoxyphenyl)methylene)-2-oxindole] | 40.8
O=C1Nc2ccccc2C1=Cc1cccs1 [Compound 37, 3-(2-thienylmethylidene)-2-oxindole] | 38.1
Cc1nn(-c2ccccc2)c(C)c1C=C1C(=O)Nc2ccccc21 [Compound 44, 3-((3,5-dimethyl-1-phenyl-1H-pyrazol-4-yl)methylene)-2-oxindole] | 43.6
Cc1n[nH]c(C)c1C=C1C(=O)Nc2ccccc21 [Compound 42, 3-((3,5-dimethyl-1H-pyrazol-4-yl)methylene)-2-oxindole] | 54.4
COC(=O)Nc1ccc2c(c1)C(=Cc1ccc([N+](=O)[O-])cc1)C(=O)N2 [Compound 28, 3-(4-nitrobenzylidene)-5-(methoxycarbonylamino)-2-oxindole] | 74

same assay, conditions: recombinant human NQO2, 100 μM menadione, 100 μM BNAH; read-out: NQO2 IC50 ± SEM

SMILES | IC50 [µM]
COc1ccc2c(c1)C(O)(CC(=O)c1ccc(C)cc1)C(=O)N2 (stereo not drawn) [Compound 48, 3-hydroxy-5-methoxy-3-[2-(4-methylphenyl)-2-oxoethyl]-2-oxindole] | > 50
COC(=O)Nc1ccc2c(c1)C(=Cc1ccc(O)cc1)C(=O)N2 [Compound 17, 3-(4-hydroxybenzylidene)-5-(methoxycarbonylamino)-2-oxindole] | 0.44 ± 0.02
O=C1Nc2ccc(NC(=O)c3ccco3)cc2C1=Cc1ccc(O)cc1 [Compound 18, 3-(4-hydroxybenzylidene)-5-furoylamino-2-oxindole] | 0.37 ± 0.02
COc1cc(C=C2C(=O)Nc3ccc(NC(C)=O)cc32)cc(OC)c1OC [Compound 24, 3-(3,4,5-trimethoxybenzylidene)-5-acetylamino-2-oxindole] | 0.37 ± 0.01
O=C1Nc2ccc([N+](=O)[O-])cc2C1=Cc1ccncc1 [Compound 12, 5-nitro-3-(4-pyridinylmethylidene)-2-oxindole] | > 50
O=C1Nc2ccccc2C1=Cc1ccncc1 [Compound 10, 3-(4-pyridinylmethylidene)-2-oxindole] | > 50
Nc1ccc2c(c1)C(Cc1ccccn1)C(=O)N2 (stereo not drawn) [Compound 47, 3-(pyridin-2-ylmethyl)-5-amino-2-oxindole] | > 50
Cc1ccc(C(=O)CC2(O)C(=O)Nc3ccc(Br)cc32)cc1 (stereo not drawn) [Compound 49, 3-hydroxy-5-bromo-3-[2-(4-methylphenyl)-2-oxoethyl]-2-oxindole] | > 50
O=c1c(O)c(-c2ccc(O)c(O)c2)oc2cc(O)cc(O)c12 [Quercetin, reference compound] | 0.08 ± 0.02
CCOc1ccc(/C=C2/C(=O)Nc3ccccc32)cc1 [Compound 22, (E)-3-(4-Ethoxybenzylidene)-2-oxindole] | > 50
CC(=O)Nc1ccc2c(c1)C(=Cc1ccc(O)cc1)C(=O)N2 [Compound 16, (E,Z)-3-(4-Hydroxybenzylidene)-5-acetamido-2-oxindole] | 0.99 ± 0.03
CN1C(=O)C(=Cc2ccc(O)cc2)c2ccccc21 [Compound 15, 3-(4-hydroxybenzylidene)-N-methyl-2-oxindole] | 0.62 ± 0.04

test system: not listed separately; experiment: Antiproliferative assay (MTT colorimetric test, 72 h); format: cell-based; settings: human, n.a. = not active, read-out: A549, CC50
From the text: The cytotoxicity of the synthesized oxindoles was studied using the A549 cell line in which the levels of NQO2 are increased (Table 4). […] The cytotoxicity of the compounds may be due to the inhibition of other enzymes associated with the activation of apoptosis in cancer cells, for example GSK3b or tyrosine kinases, or with the general non-specific toxicity of these compounds. Thus, the influence of NQO2 on A549 cell viability has not been established.
The A549 cells were maintained in F12-K (Gibco, Paisley, UK) supplemented with 10% fetal bovine serum (FBS, Gibco, UK), penicillin (100 UI mL^−1), streptomycin (100 µg mL^−1) and GlutaMax (2 mM, Gibco, UK). All cells line were cultured under a humidified atmosphere of 95% air/5% CO2 at 37 °C. Subconfluent monolayers, in the log growth phase, were harvested by a brief treatment with TrypLE Express solution (Gibco, UK) in phosphate-buffered saline (PBS, Capricorn Scientific, Ebsdorfergrund, Germany) and washed three times in serum-free PBS. The number of viable cells was determined by trypan blue exclusion.
The effects of the synthesized compounds on cell viability were determined using the MTT colorimetric test. All examined cells were diluted with the growth medium to 3.5 × 10^4 cells per mL and the aliquots (7 × 10^3 cells per 200 μL) were placed in individual wells in 96-multiplates (Eppendorf, Germany) and incubated for 24 h. […] After incubation, the cells were then treated with 40 μL MTT solution (3-(4,5-dimethylthiazol-2-yl)-2,5-diphenyltetrazolium bromide, 5 mg mL^−1 in PBS) and incubated for 4 h. After an additional 4 h incubation, the medium with MTT was removed and DMSO (150 μL) was added to dissolve the formazan crystals. The plates were shaken for 10 min. The optical density of each well was determined at 560 nm using a microplate reader GloMax Multi+ (Promega, Madison, WI, USA). Each of the tested compounds was evaluated for cytotoxicity in three separate experiments.

SMILES | CC50 at 72 h [µM]
O=C1Nc2ccccc2/C1=C\c1ccccn1 [Compound 1, (E)-3-(2-pyridinylmethylidene)-2-oxindole] | 48 ± 4.42
O=C1Nc2ccc([N+](=O)[O-])cc2C1=Cc1ccco1 [Compound 36, 5-nitro-3-(2-furylmethylidene)-2-oxindole] | 329 ± 17
CC(=O)Nc1ccc2c(c1)C(=Cc1cccc(O)c1)C(=O)N2 [Compound 13, 3-(3-hydroxybenzylidene)-5-acetylamino-2-oxindole] | 176 ± 4.76
O=C1Nc2ccc(Br)cc2C1=Cc1ccco1 [Compound 35, 5-bromo-3-(2-furylmethylidene)-2-oxindole] | 449 ± 18.7
COC(=O)Nc1ccc2c(c1)C(=Cc1ccc(O)cc1)C(=O)N2 [Compound 17, 3-(4-hydroxybenzylidene)-5-(methoxycarbonylamino)-2-oxindole] | 44.43 ± 0.29
O=C1Nc2ccc(NC(=O)c3ccco3)cc2C1=Cc1ccc(O)cc1 [Compound 18, 3-(4-hydroxybenzylidene)-5-furoylamino-2-oxindole] | 146 ± 11.3
Cc1n[nH]cc1C=C1C(=O)Nc2ccccc21 [Compound 43, 3-((3-methyl-1H-pyrazol-4-yl)methylene)-2-oxindole] | 219
O=C1Nc2ccc(Br)cc2C1=Cc1cccnc1 [Compound 8, 5-bromo-3-(3-pyridinylmethylidene)-2-oxindole] | 22.3 ± 1.42
O=C1Nc2ccccc2C1=Cc1cccnc1 [Compound 7, 3-(3-pyridinylmethylidene)-2-oxindole] | 67.5 ± 7.58
COc1cc(C=C2C(=O)Nc3ccc(NC(C)=O)cc32)cc(OC)c1OC [Compound 24, 3-(3,4,5-trimethoxybenzylidene)-5-acetylamino-2-oxindole] | 149 ± 2.63
O=C1Nc2ccc(NC(=O)c3ccccc3)cc2C1=Cc1ccc(O)cc1 [Compound 19, 3-(4-hydroxybenzylidene)-5-benzoylamino-2-oxindole] | 412.2 ± 3.98
O=C1Nc2ccccc2C1=Cc1ccncc1 [Compound 10, 3-(4-pyridinylmethylidene)-2-oxindole] | 80.3 ± 9.87
COc1ccc(C=C2C(=O)Nc3ccccc32)cc1 [Compound 20, 3-((4-methoxyphenyl)methylene)-2-oxindole] | 54.8
O=C1Nc2ccc(Br)cc2C1=Cc1cccs1 [Compound 38, 5-bromo-3-(2-thienylmethylidene)-2-oxindole] | 427 ± 6.2
O=C1Nc2ccccc2C1=Cc1cccs1 [Compound 37, 3-(2-thienylmethylidene)-2-oxindole] | 491 ± 19.9
CCOC(=O)c1[nH]ncc1C=C1C(=O)Nc2ccccc21 [Compound 39, 3-((5-ethoxycarbonyl-1H-pyrazol-4-yl)methylene)-2-oxindole] | 231

— article PMC9920986 (Molecules, 2023)
